Experiment [1] concerns the target T1, His tagged full-length PTPN1 protein (Homo sapiens, UniProt P18031).
T1 construct: made in house
T1 sequence (P18031 with tags, fused parts or gaps): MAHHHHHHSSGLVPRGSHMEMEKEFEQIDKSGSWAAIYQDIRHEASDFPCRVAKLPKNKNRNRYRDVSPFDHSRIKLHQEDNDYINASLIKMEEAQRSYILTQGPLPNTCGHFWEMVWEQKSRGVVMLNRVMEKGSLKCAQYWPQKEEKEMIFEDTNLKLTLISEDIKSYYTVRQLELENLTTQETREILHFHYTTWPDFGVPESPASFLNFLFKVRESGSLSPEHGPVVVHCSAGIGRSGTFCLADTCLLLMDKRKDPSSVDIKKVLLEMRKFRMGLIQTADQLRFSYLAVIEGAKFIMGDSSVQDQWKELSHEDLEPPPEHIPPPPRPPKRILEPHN
As to the kind of experiment: Mobility shift assay (MSA) to determine potency of PTPN1 inhibitors. The note with it: 0.5 nM enzyme, 2 μM substrate. The experiment is classed as biochemical. A digest of the protocol: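 Readout is microfluidic mobility shift (ex 488/em 530 nm) of a 2 μM OG488-labelled pTyr insulin-receptor peptide after a 10 min room-temperature reaction, following 10 min enzyme–compound preincubation. Enzyme: 0.5 nM full-length His-tagged PTPN1 in HEPES pH 7.5 buffer. IC50 fitted from % inhibition at 12 concentrations (1:3 steps).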

For experiment [2], the target named is T2, His tagged PTPN2 (TC45) protein (Homo sapiens, UniProt P17706).
T2 construct: made in house
T2 sequence (P17706 with tags, fused parts or gaps isoform P17706-2): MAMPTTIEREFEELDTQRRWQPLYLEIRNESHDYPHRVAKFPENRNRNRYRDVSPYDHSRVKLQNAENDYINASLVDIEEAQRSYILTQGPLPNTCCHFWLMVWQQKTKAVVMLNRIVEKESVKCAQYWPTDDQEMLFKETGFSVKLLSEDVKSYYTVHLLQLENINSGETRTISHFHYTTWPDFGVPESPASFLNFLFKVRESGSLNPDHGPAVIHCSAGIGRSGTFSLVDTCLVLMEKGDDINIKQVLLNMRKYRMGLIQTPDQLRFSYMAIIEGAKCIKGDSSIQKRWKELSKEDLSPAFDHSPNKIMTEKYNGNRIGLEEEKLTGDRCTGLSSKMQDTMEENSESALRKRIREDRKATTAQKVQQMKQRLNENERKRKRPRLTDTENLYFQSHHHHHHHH
Put plainly: Mobility shift assay (MSA) to determine potency of PTPN2 inhibitors. As to conditions: 0.5 nM enzyme, 2 μM substrate. It is filed as biochemical. A digest of the protocol:
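His-tagged human PTPN2 (TC45), 0.5 nM, preincubated 10 min at room temperature with compound (12-point, 1:3 dilutions) in HEPES pH 7.5 buffer with EGTA, EDTA, Tween 20 and DTT. Then 2 μM OG488-labelled phospho-insulin-receptor peptide was added for 10 min and quenched. % conversion was read by mobility shift, and IC50 came from % inhibition.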

A word on the pIC50: it is the IC50 on a negative log10 scale, so that one unit is a factor of ten.

pIC50: −log10 of the molar value. Some results are limits rather than exact numbers.

For the molecule `Cn1nccc1CNC(=O)N1CCc2cc(O)c(N3CC(=O)NS3(=O)=O)c(F)c2C1` [Compound 272], the pIC50 in experiment [1] and in experiment [2] was 7.00 to 8.00 in each case.
In the case of `Cc1nn(C(C)C)c(C)c1CCN1CCc2cc(O)c(N3CC(=O)NS3(=O)=O)c(F)c2C1` [Compound 273], the pIC50 in experiment [1] and in experiment [2] was 8.00 to 9.00 in each case.
Take `CCn1nc(C)c(CCN2CCc3cc(O)c(N4CC(=O)NS4(=O)=O)c(F)c3C2)c1C` [Compound 276]: the pIC50 is 8.00 to 9.00 in experiment [1] and more than 9.00 in experiment [2].
The corresponding values for `CC(C)(C)CNC(=O)N1CCc2cc(O)c(N3CC(=O)NS3(=O)=O)c(F)c2C1` [Compound 277] are 7.00 to 8.00 and 8.00 to 9.00.
The corresponding values for `COCCCNC(=O)N1CCc2cc(O)c(N3CC(=O)NS3(=O)=O)c(F)c2C1` [Compound 278] are 7.00 to 8.00 and 7.00 to 8.00.
The corresponding values for `COCC(C)(C)CNC(=O)N1CCc2cc(O)c(N3CC(=O)NS3(=O)=O)c(F)c2C1` [Compound 279] are 7.00 to 8.00 and 7.00 to 8.00.
As for `CN(C)CCNC(=O)N1CCc2cc(O)c(N3CC(=O)NS3(=O)=O)c(F)c2C1` [Compound 280], the pIC50 in experiment [1] and in experiment [2] was less than 7.00 in each case.
In the case of `CC1(CCNC(=O)N2CCc3cc(O)c(N4CC(=O)NS4(=O)=O)c(F)c3C2)CC1` [Compound 281], the pIC50 in experiment [1] and in experiment [2] was 7.00 to 8.00 in each case.
On to `COCCNC(=O)N1CCc2cc(O)c(N3CC(=O)NS3(=O)=O)c(F)c2C1` [Compound 282], for which the pIC50 in experiment [1] and in experiment [2] was 7.00 to 8.00 in each case.
Turning to `O=C1CN(c2c(O)cc3c(c2F)CN(C(=O)NCC2COC2)CC3)S(=O)(=O)N1` [Compound 283], the results for the pIC50 in experiment [1] and in experiment [2] were less than 7.00 and 7.00 to 8.00, respectively.
The like results for `O=C1CN(c2c(O)cc3c(c2F)CN(C(=O)NCCc2ccccc2)CC3)S(=O)(=O)N1` [Compound 284] were, in that order, 7.00 to 8.00 and 7.00 to 8.00.
The corresponding values for `O=C1CN(c2c(O)cc3c(c2F)CN(CCCC2CCCCC2)CC3)S(=O)(=O)N1` [Compound 286] are 8.00 to 9.00 and 8.00 to 9.00.
The corresponding values for `C[C@H]1Cc2c(cc(O)c(N3CC(=O)NS3(=O)=O)c2F)CN1` [Compound 289] are less than 7.00 and 7.00 to 8.00.
Consider `COCCCCN1CCc2cc(O)c(N3CC(=O)NS3(=O)=O)c(F)c2C1` [Compound 293], for which the negative-log IC50 (pIC50) in experiment [1] and in experiment [2] was 7.00 to 8.00 throughout.
As for `O=C1CN(c2c(O)cc3c(c2F)CN(CCCc2cccc(C(F)(F)F)c2)CC3)S(=O)(=O)N1` [Compound 294], the pIC50 in experiment [1] and in experiment [2] was 7.00 to 8.00 throughout.
Consider `CC1(C)COC(CCCCN2CCc3cc(O)c(N4CC(=O)NS4(=O)=O)c(F)c3C2)OC1` [Compound 296], for which the values for the pIC50 in experiment [1] and in experiment [2] were less than 7.00 and 7.00 to 8.00, respectively.
For the molecule `CC1=C(CCN2CCc3cc(O)c(N4CC(=O)NS4(=O)=O)c(F)c3C2)C(C)(C)CCC1` [Compound 297], the pIC50 in experiment [1] is 8.00 to 9.00; in experiment [2], more than 9.00.
The corresponding values for `CCCCCN1CCc2cc(O)c(N3CC(=O)NS3(=O)=O)c(F)c2C1` [Compound 298] are 7.00 to 8.00 and 7.00 to 8.00.
The corresponding values for `O=C1CN(c2c(O)cc3c(c2F)CN(CCCc2ccc(F)cc2)CC3)S(=O)(=O)N1` [Compound 299] are 7.00 to 8.00 and 8.00 to 9.00.
The corresponding values for `CC(C)(C)OC(=O)N[C@H]1CC[C@H](CCN2CCc3cc(O)c(N4CC(=O)NS4(=O)=O)c(F)c3C2)CC1` [Compound 300] are 8.00 to 9.00 and 8.00 to 9.00.
Consider `CC(C)(C)c1ccc(CCCN2CCc3cc(O)c(N4CC(=O)NS4(=O)=O)c(F)c3C2)cc1` [Compound 301], for which the figures for the pIC50 in experiment [1] and in experiment [2] were less than 7.00 and 7.00 to 8.00, respectively.
As to `O=C1CN(c2c(O)cc3c(c2F)CN(CCCc2ccccc2F)CC3)S(=O)(=O)N1` [Compound 303], the figures for the pIC50 in experiment [1] and in experiment [2] were 7.00 to 8.00 and 8.00 to 9.00, respectively.
With `Cc1noc(C)c1CCN1Cc2c(cc(O)c(N3CC(=O)NS3(=O)=O)c2F)C(F)(F)C1` [Compound 306], the pIC50 in experiment [1] and in experiment [2] was less than 7.00 in each case.
For `Cc1n[nH]c(C)c1CCN1Cc2c(cc(O)c(N3CC(=O)NS3(=O)=O)c2F)C(F)(F)C1` [Compound 320], the pIC50 in experiment [1] and in experiment [2] was less than 7.00 each time.
With `O=C1CN(c2c(O)cc3c(c2F)CN(C(=O)NCC2CCCCC2)CC3)S(=O)(=O)N1` [Compound 321], the pIC50 in experiment [1] and in experiment [2] was 8.00 to 9.00 each time.
With `CC(=O)NC1CCc2cc(O)c(N3CC(=O)NS3(=O)=O)c(F)c2C1` (centres unmarked) [Compound 322], the pIC50 in experiment [1] and in experiment [2] was 7.00 to 8.00 each time.
As for `O=C1CC[C@@H](CN2CCc3cc(O)c(N4CC(=O)NS4(=O)=O)c(F)c3C2)N1` [Compound 324], the pIC50 in experiment [1] was 7.00 to 8.00; in experiment [2], 8.00 to 9.00.
The corresponding values for `CC(C)CCC[C@H]1Cc2c(cc(O)c(N3CC(=O)NS3(=O)=O)c2F)CN1` [Compound 325] are 8.00 to 9.00 and 8.00 to 9.00.
The like results for `N[C@@H]1COc2cc(O)c(N3CC(=O)NS3(=O)=O)c(F)c2C1` [Compound 326, 5-[(3S)-3-amino-5-fluoro-7-hydroxy-3,4-dihydro-2H-1-benzopyran-6-yl]-1λ^6,2,5-thiadiazolidine-1,1,3-trione] were, in that order, 7.00 to 8.00 and 7.00 to 8.00.
The corresponding values for `[2H]C1([2H])C(=O)NS(=O)(=O)N1c1c(O)cc2c(c1F)C[C@H](NCCC(C)C)CC2` [Compound 327, 5-{(7R)-1-fluoro-3-hydroxy-7-[(3-methylbutyl)amino]-5,6,7,8-tetrahydronaphthalen-2-yl}(4,4-^2H2)-1λ^6,2,5-thiadiazolidine-1,1,3-trione] are 8.00 to 9.00 and more than 9.00.
For the molecule `CC(C)CNS(=O)(=O)N1CCc2cc(O)c(N3CC(=O)NS3(=O)=O)c(F)c2C1` [Compound 328, 8-fluoro-6-hydroxy-N-(2-methylpropyl)-7-(1,1,4-trioxo-1λ^6,2,5-thiadiazolidin-2-yl)-3,4-dihydroisoquinoline-2(1H)-sulfonamide], the pIC50 in experiment [1] and in experiment [2] was 7.00 to 8.00 each time.
On to `CC(C)CNC(=N)N1CCc2cc(O)c(N3CC(=O)NS3(=O)=O)c(F)c2C1` [Compound 329, 8-fluoro-6-hydroxy-N-(2-methylpropyl)-7-(1,1,4-trioxo-1λ^6,2,5-thiadiazolidin-2-yl)-3,4-dihydroisoquinoline-2(1H)-carboximidamide], for which the pIC50 in experiment [1] and in experiment [2] was 7.00 to 8.00 throughout.
Regarding `O=C1CN(c2c(O)cc3c(c2F)CC(NCCC2COC2)CC3)S(=O)(=O)N1` (centres unmarked) [Compound 330, 5-(1-fluoro-3-hydroxy-7-{[2-(oxetan-3-yl)ethyl]amino}-5,6,7,8-tetrahydronaphthalen-2-yl)-1λ^6,2,5-thiadiazolidine-1,1,3-trione], the pIC50 in experiment [1] and in experiment [2] was less than 7.00 each time.
Regarding `CC(C)CCN[C@@H]1CCc2c(F)c(O)c(N3CC(=O)NS3(=O)=O)c(F)c2C1` [Compound 331, 5-{(7R)-1,4-difluoro-3-hydroxy-7-[(3-methylbutyl)amino]-5,6,7,8-tetrahydronaphthalen-2-yl}-1λ^6,2,5-thiadiazolidine-1,1,3-trione], the pIC50 in experiment [1] and in experiment [2] was 8.00 to 9.00 throughout.
For `CC(C)CCS(=O)(=O)NC1CCc2cc(O)c(N3CC(=O)NS3(=O)=O)c(F)c2C1` (centres unmarked) [Compound 332, N-[8-fluoro-6-hydroxy-7-(1,1,4-trioxo-1λ^6,2,5-thiadiazolidin-2-yl)-1,2,3,4-tetrahydronaphthalen-2-yl]-3-methylbutane-1-sulfonamide], the pIC50 in experiment [1] and in experiment [2] was 7.00 to 8.00 throughout.
`CC(C)CNCC1CCc2cc(O)c(N3CC(=O)NS3(=O)=O)c(F)c2C1` (centres unmarked) [Compound 333, 5-(1-fluoro-3-hydroxy-7-{[(2-methylpropyl)amino]methyl}-5,6,7,8-tetrahydronaphthalen-2-yl)-1λ^6,2,5-thiadiazolidine-1,1,3-trione]: the pIC50 in experiment [1] and in experiment [2] was 7.00 to 8.00 each time.
Turning to `CC(C)C(F)CNC1CCc2cc(O)c(N3CC(=O)NS3(=O)=O)c(F)c2C1` (centres unmarked) [Compound 334, 5-{1-fluoro-7-[(2-fluoro-3-methylbutyl)amino]-3-hydroxy-5,6,7,8-tetrahydronaphthalen-2-yl}-1λ^6,2,5-thiadiazolidine-1,1,3-trione], the pIC50 in experiment [1] and in experiment [2] was 8.00 to 9.00 throughout.

The values are drawn from US20250122160A1, “PROTEIN TYROSINE PHOSPHATASE INHIBITORS AND METHODS OF USE THEREOF” (Calico Life Sciences LLC, priority 0001, published 2025).
